Source: patent US6710049B2, “Azole compounds as anti-fungal agents” (Ranbaxy Laboratories Limited, priority 2000, dated 2004)

Assays:
Penicillium 2548 [1] = assay: MFC determination (subculture on Sabouraud Dextrose Agar); format: cell-based
Excerpt: (§1) The in-vitro evaluation of the antifungal activity of the compounds can be performed by determining the minimum inhibitory concentration (MIC) as shown in Table 1 which is the concentration of the test compound in Rosewell Park Memorial Institute (RPMI) 1640 liquid medium buffered with 3-(Morpholino)propanesulphonic acid (MOPS) to pH 7, at which there is significant inhibition of the particular fungi. In practice the National Committee for Clinical Laboratory Standard (NCCLS) M27A document for Candida and Cryptococcus and M38P for Aspergillus was used to determine the MIC against yeast and filamentous fungi with suitable modifications for dermatophytes to other filamentous fungi. Three quality control strains were included each time the MIC were determined and readings recorded only when the Quality Control results fell into the acceptable range. After MIC results had been recorded, 100 μl from each of the well showing no growth was spread over Sabouraud Dextrose Agar (SDA) to determine the minimum fungicidal concentration (MFC) as shown in Table 2.

A niger E5 - 1047 [2] = assay: as above; format: cell-based
Excerpt: as §1

C krusei 6258 [3] = assay: as above; format: cell-based
Excerpt: as §1

Penicillium H - 1048 [4] = assay: as above; format: cell-based
Excerpt: as §1

Penicillium 1641 = assay: as above; format: cell-based
Excerpt: as §1

Fusarium 18270 = assay: as above; format: cell-based; conditions: Fusarium 18270
Excerpt: as §1

Rhizopus (Ceylon) [5] = assay: as above; format: cell-based
Excerpt: as §1

Penicillium 31620 = assay: as above; format: cell-based
Excerpt: as §1

Mucor (Ceylon) = assay: as above; format: cell-based
Excerpt: as §1

Penicillium I - 1049 [6] = assay: as above; format: cell-based
Excerpt: as §1

A flavus E3 - 1044 [7] = assay: as above; format: cell-based
Excerpt: as §1

Rhizopus 1052 [8] = assay: as above; format: cell-based
Excerpt: as §1

A niger P1 - 1046 [9] = assay: as above; format: cell-based
Excerpt: as §1

Penicillium 191 [10] = assay: as above; format: cell-based
Excerpt: as §1

C parapsilosis 22019 [11] = assay: as above; format: cell-based
Excerpt: as §1

A flavus P2 - 1045 [12] = assay: as above; format: cell-based
Excerpt: as §1

Alternaria 1051 [13] = assay: as above; format: cell-based
Excerpt: as §1

Penicillium 2306 = assay: as above; format: cell-based
Excerpt: as §1

Fusarium 1827C = assay: MIC determination (NCCLS broth method); format: cell-based
Excerpt: as §1

C tropicalis 750 = assay: MIC determination (NCCLS broth method); format: cell-based
Excerpt: as §1

Penicillium 3162 = assay: MIC determination (NCCLS broth method); format: cell-based
Excerpt: as §1

Penicillium 2548 [14] = assay: MIC determination (NCCLS broth method); format: cell-based
Excerpt: as §1

A niger E5 - 1047 [15] = assay: MIC determination (NCCLS broth method); format: cell-based
Excerpt: as §1

C krusei 6258 [16] = assay: MIC determination (NCCLS broth method); format: cell-based
Excerpt: as §1

Penicillium H - 1048 [17] = assay: MIC determination (NCCLS broth method); format: cell-based
Excerpt: as §1

Rhizopus (Ceylon) [18] = assay: MIC determination (NCCLS broth method); format: cell-based
Excerpt: as §1

A flavus P3 - 1041 [19] = assay: MIC determination (NCCLS broth method); format: cell-based
Excerpt: as §1

C glabrata 90030 = assay: MIC determination (NCCLS broth method); format: cell-based
Excerpt: as §1

Penicillium I - 1049 [20] = assay: MIC determination (NCCLS broth method); format: cell-based
Excerpt: as §1

A flavus E3 - 1044 [21] = assay: MIC determination (NCCLS broth method); format: cell-based
Excerpt: as §1

Fusarium 1050 = assay: MIC determination (NCCLS broth method); format: cell-based
Excerpt: as §1

Rhizopus 1052 [22] = assay: MIC determination (NCCLS broth method); format: cell-based
Excerpt: as §1

A flavus E4 - 1042 [23] = assay: MIC determination (NCCLS broth method); format: cell-based
Excerpt: as §1

A niger P1 - 1046 [24] = assay: MIC determination (NCCLS broth method); format: cell-based
Excerpt: as §1

Penicillium 191 [25] = assay: MIC determination (NCCLS broth method); format: cell-based
Excerpt: as §1

C parapsilosis 22019 [26] = assay: MIC determination (NCCLS broth method); format: cell-based
Excerpt: as §1

A flavus E2 - 1043 = assay: MIC determination (NCCLS broth method); format: cell-based
Excerpt: as §1

C krusei 766.1 = assay: MIC determination (NCCLS broth method); format: cell-based
Excerpt: as §1

Fusarium 2960C = assay: MIC determination (NCCLS broth method); format: cell-based
Excerpt: as §1

H capsulatum = assay: MIC determination (NCCLS broth method); format: cell-based
Excerpt: as §1

A flavus P2 - 1045 [27] = assay: MIC determination (NCCLS broth method); format: cell-based
Excerpt: as §1

Alternaria 1051 [28] = assay: MIC determination (NCCLS broth method); format: cell-based
Excerpt: as §1

C albicans Y01.19 = assay: MIC determination (NCCLS broth method); format: cell-based, Candida albicans
Excerpt: as §1

A flavus P3 - 1041 [29] = assay: MFC determination (subculture on Sabouraud Dextrose Agar); format: cell-based
Excerpt: as §1

A flavus E4 - 1042 [30] = assay: as above; format: cell-based
Excerpt: as §1

C albicans A-26 = assay: MIC determination (NCCLS broth method); format: cell-based, Candida albicans
Excerpt: as §1

C[C@@H](n1ncn(-c2ccc(OCC(F)(F)C(F)F)cc2)c1=O)[C@](O)(Cn1cncn1)c1ccc(F)cc1F [TAK 187, 2-[(1R,2R)-2-(2,4-difluorophenyl)-2-hydroxy-1-methyl-3-(1H-1,2,4-triazol-1-yl)propyl]-4-(2′,2′,3′,3′-tetraflouropropoxyphenyl)-3(2H,4H)-1,2,4-triazolone]
16 µg/mL: Minimum Fungicidal Concentration (MFC) (Penicillium 2548 [1]) | Minimum Fungicidal Concentration (MFC) (Penicillium 31620) | Minimum Fungicidal Concentration (MFC) (Penicillium 191 [10]) | Minimum Fungicidal Concentration (MFC) (Alternaria 1051 [13]) | Minimum Fungicidal Concentration (MFC) (Penicillium 2306) | Minimum Inhibitory Concentration (MIC) (Penicillium 2548 [14]) | Minimum Inhibitory Concentration (MIC) (Penicillium H - 1048 [17]) | Minimum Inhibitory Concentration (MIC) (Penicillium I - 1049 [20]) | Minimum Inhibitory Concentration (MIC) (Penicillium 191 [25])
0.03 µg/mL: Minimum Fungicidal Concentration (MFC) (C parapsilosis 22019 [11]) | Minimum Inhibitory Concentration (MIC) (C parapsilosis 22019 [26])
2 µg/mL: Minimum Fungicidal Concentration (MFC) (A niger E5 - 1047 [2]) | Minimum Inhibitory Concentration (MIC) (A niger E5 - 1047 [15]) | Minimum Inhibitory Concentration (MIC) (C krusei 6258 [16]) | Minimum Inhibitory Concentration (MIC) (Rhizopus (Ceylon) [18]) | Minimum Inhibitory Concentration (MIC) (C krusei 766.1) | Minimum Inhibitory Concentration (MIC) (C albicans Y01.19)
0.125 µg/mL: Minimum Inhibitory Concentration (MIC) (C tropicalis 750)
1 µg/mL: Minimum Inhibitory Concentration (MIC) (A flavus E3 - 1044 [21]) | Minimum Inhibitory Concentration (MIC) (Alternaria 1051 [28])
0.25 µg/mL: Minimum Inhibitory Concentration (MIC) (H capsulatum)
8 µg/mL: Minimum Fungicidal Concentration (MFC) (A flavus E3 - 1044 [7]) | Minimum Inhibitory Concentration (MIC) (A flavus P3 - 1041 [19]) | Minimum Inhibitory Concentration (MIC) (Rhizopus 1052 [22])
128 µg/mL: Minimum Fungicidal Concentration (MFC) (Penicillium I - 1049 [6])
4 µg/mL: Minimum Inhibitory Concentration (MIC) (A flavus E4 - 1042 [23]) | Minimum Inhibitory Concentration (MIC) (A flavus E2 - 1043) | Minimum Inhibitory Concentration (MIC) (A flavus P2 - 1045 [27])
>128 µg/mL: Minimum Fungicidal Concentration (MFC) (Penicillium H - 1048 [4]) | Minimum Fungicidal Concentration (MFC) (Rhizopus (Ceylon) [5]) | Minimum Fungicidal Concentration (MFC) (Mucor (Ceylon))
32 µg/mL: Minimum Fungicidal Concentration (MFC) (Penicillium 1641) | Minimum Fungicidal Concentration (MFC) (Fusarium 18270) | Minimum Fungicidal Concentration (MFC) (Rhizopus 1052 [8]) | Minimum Fungicidal Concentration (MFC) (A flavus P2 - 1045 [12]) | Minimum Inhibitory Concentration (MIC) (Fusarium 1827C) | Minimum Inhibitory Concentration (MIC) (Penicillium 3162) | Minimum Inhibitory Concentration (MIC) (Fusarium 2960C)
64 µg/mL: Minimum Fungicidal Concentration (MFC) (C krusei 6258 [3]) | Minimum Inhibitory Concentration (MIC) (Fusarium 1050)
0.5 µg/mL: Minimum Fungicidal Concentration (MFC) (A niger P1 - 1046 [9]) | Minimum Inhibitory Concentration (MIC) (C glabrata 90030) | Minimum Inhibitory Concentration (MIC) (A niger P1 - 1046 [24])

C[C@@H]1[C@H](O)[C@@H](C)/C=C/C=C/C=C/C=C/C=C/C=C/C=C/[C@H](O[C@@H]2O[C@H](C)[C@@H](O)[C@H](N)[C@@H]2O)C[C@@H]2O[C@](O)(C[C@@H](O)C[C@@H](O)[C@H](O)CC[C@@H](O)C[C@@H](O)CC(=O)O[C@H]1C)C[C@H](O)[C@H]2C(=O)O [Amphotericin-B, Amphotericin B]
64 µg/mL: Minimum Fungicidal Concentration (MFC) (Rhizopus (Ceylon) [5]) | Minimum Inhibitory Concentration (MIC) (Rhizopus (Ceylon) [18])
>128 µg/mL: Minimum Fungicidal Concentration (MFC) (Alternaria 1051 [13]) | Minimum Inhibitory Concentration (MIC) (Fusarium 1827C)
0.03 µg/mL: Minimum Inhibitory Concentration (MIC) (Penicillium 2548 [14])
2 µg/mL: Minimum Fungicidal Concentration (MFC) (Penicillium H - 1048 [4]) | Minimum Fungicidal Concentration (MFC) (Penicillium 191 [10])
0.25 µg/mL: Minimum Fungicidal Concentration (MFC) (A niger E5 - 1047 [2]) | Minimum Fungicidal Concentration (MFC) (Penicillium 31620) | Minimum Fungicidal Concentration (MFC) (A niger P1 - 1046 [9]) | Minimum Inhibitory Concentration (MIC) (C tropicalis 750) | Minimum Inhibitory Concentration (MIC) (Penicillium 3162) | Minimum Inhibitory Concentration (MIC) (A niger E5 - 1047 [15]) | Minimum Inhibitory Concentration (MIC) (C krusei 6258 [16]) | Minimum Inhibitory Concentration (MIC) (Penicillium H - 1048 [17]) | Minimum Inhibitory Concentration (MIC) (C glabrata 90030) | Minimum Inhibitory Concentration (MIC) (Penicillium I - 1049 [20]) | Minimum Inhibitory Concentration (MIC) (A niger P1 - 1046 [24]) | Minimum Inhibitory Concentration (MIC) (Penicillium 191 [25]) | Minimum Inhibitory Concentration (MIC) (C parapsilosis 22019 [26]) | Minimum Inhibitory Concentration (MIC) (C krusei 766.1) | Minimum Inhibitory Concentration (MIC) (C albicans A-26)
0.06 µg/mL: Minimum Inhibitory Concentration (MIC) (Rhizopus 1052 [22])
1 µg/mL: Minimum Fungicidal Concentration (MFC) (C krusei 6258 [3]) | Minimum Fungicidal Concentration (MFC) (Mucor (Ceylon)) | Minimum Fungicidal Concentration (MFC) (A flavus P2 - 1045 [12]) | Minimum Inhibitory Concentration (MIC) (A flavus E3 - 1044 [21]) | Minimum Inhibitory Concentration (MIC) (A flavus E2 - 1043) | Minimum Inhibitory Concentration (MIC) (A flavus P2 - 1045 [27]) | Minimum Inhibitory Concentration (MIC) (Alternaria 1051 [28])
8 µg/mL: Minimum Fungicidal Concentration (MFC) (Rhizopus 1052 [8])
0.125 µg/mL: Minimum Fungicidal Concentration (MFC) (A flavus E4 - 1042 [30]) | Minimum Inhibitory Concentration (MIC) (A flavus E4 - 1042 [23]) | Minimum Inhibitory Concentration (MIC) (C albicans Y01.19)
0.5 µg/mL: Minimum Fungicidal Concentration (MFC) (A flavus P3 - 1041 [29]) | Minimum Fungicidal Concentration (MFC) (A flavus E3 - 1044 [7]) | Minimum Fungicidal Concentration (MFC) (Penicillium 2306) | Minimum Inhibitory Concentration (MIC) (A flavus P3 - 1041 [19]) | Minimum Inhibitory Concentration (MIC) (Fusarium 1050) | Minimum Inhibitory Concentration (MIC) (Fusarium 2960C)
16 µg/mL: Minimum Fungicidal Concentration (MFC) (Penicillium 1641)
4 µg/mL: Minimum Fungicidal Concentration (MFC) (Penicillium 2548 [1]) | Minimum Fungicidal Concentration (MFC) (Penicillium I - 1049 [6])
32 µg/mL: Minimum Fungicidal Concentration (MFC) (C parapsilosis 22019 [11])
